# From ChEMBL document CHEMBL5034028, “Design, synthesis and biological evaluation of tyrosinase-targeting PROTACs” (Eur J Med Chem, 2021)
# Activity calls are given as the source filed them. The rule behind the calls is not given here.
# Tests used:
# [1] = molecular target: T1, Protein cereblon/Tyrosinase (Homo sapiens) (UniProt P14679+Q96SW2); assay: Protac activity at CRBN E3 ubiquitin ligase/tyrosinase in human A-375 cells assessed as induction of tyrosinase degradation at 100 uM measured after 24 hrs by immunoblotting analysis; format: cell-based
# T1 sequence (Q96SW2 whole entry, looked up, one chain of several): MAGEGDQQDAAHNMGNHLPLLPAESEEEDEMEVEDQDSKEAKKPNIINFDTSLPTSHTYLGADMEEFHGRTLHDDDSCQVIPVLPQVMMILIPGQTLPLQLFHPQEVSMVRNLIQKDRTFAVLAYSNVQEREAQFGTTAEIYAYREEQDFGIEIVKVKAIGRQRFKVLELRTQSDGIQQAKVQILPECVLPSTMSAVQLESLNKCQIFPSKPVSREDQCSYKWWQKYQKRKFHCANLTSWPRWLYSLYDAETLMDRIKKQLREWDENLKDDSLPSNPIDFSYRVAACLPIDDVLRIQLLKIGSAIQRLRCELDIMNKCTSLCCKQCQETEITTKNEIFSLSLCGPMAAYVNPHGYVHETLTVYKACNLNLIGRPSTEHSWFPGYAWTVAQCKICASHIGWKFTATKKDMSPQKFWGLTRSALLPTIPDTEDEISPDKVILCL
# [2] = molecular target: T1, Protein cereblon/Tyrosinase (Homo sapiens); assay: Protac activity at CRBN E3 ubiquitin ligase/tyrosinase in human A375 cells assessed as induction of tyrosinase degradation at 50 uM measured after 24 hrs by immunoblotting analysis relative to control; format: cell-based; conditions: A-375
# Danio rerio [3] = species: Danio rerio; assay: Inhibition of melanin production in zebra fish assessed reduction in melanin level in eyes at 25 to 100 uM measured 48 hrs post fertilization; format: functional, organism-based; conditions: dose 25-100 µM
# Danio rerio [4] = species: Danio rerio; assay: Inhibition of melanin production in zebra fish assessed reduction in melanin level in tail at 25 to 100 uM measured 48 hrs post fertilization; format: functional, organism-based; conditions: dose 25-100 µM
# Danio rerio [5] = species: Danio rerio; assay: Inhibition of melanin production in zebra fish assessed reduction in melanin level in abdomen at 25 to 100 uM measured 48 hrs post fertilization; format: functional, organism-based; conditions: dose 25-100 µM
# A-375 [6] = assay: Inhibition of melanin production in human A-375 cells assessed reduction in melanin level at 100 uM measured after 24 hrs by UV-visible absorption spectrophotometric method; format: functional, cell-based
# [7] = molecular target: T1, Protein cereblon/Tyrosinase (Homo sapiens); assay: Protac activity at CRBN E3 ubiquitin ligase/tyrosinase in human A-375 cells assessed as induction of tyrosinase degradation at 50 uM measured after 24 hrs by immunoblotting analysis; format: cell-based
# Mushroom tyrosinase = Mushroom tyrosinase (Agaricus bisporus, UniProt O42713+Q00024+C7FF04+C7FF05); assay: Binding affinity to mushroom tyrosinase assessed as dissociation constant
# Danio rerio [8] = species: Danio rerio; assay: Inhibition of melanin production in zebra fish assessed reduction in melanin level in back at 25 to 100 uM measured 48 hrs post fertilization; format: functional, organism-based; conditions: dose 25-100 µM
# [9] = Aqueous solubility of compound; format: physicochemical; conditions: aqueous (not further specified)
# [10] = Toxicity in zebrafish embryo assessed as effect on respiration at 25 to 100 uM measured 48 hrs post fertilization; set-up: species or system Danio rerio; conditions: in vivo, dose 25-100 µM
# Danio rerio [11] = species: Danio rerio; assay: Inhibition of melanin production in zebra fish assessed depigmentation effect at 25 to 100 uM measured 96 hrs post fertilization relative to control; format: functional; set-up: scale not given: the % may be the effect or the level left; conditions: dose 25-100 µM
# Danio rerio [12] = species: Danio rerio; assay: Inhibition of melanin production in zebra fish assessed reduction in melanin level in eyes at 25 to 100 uM measured 48 hrs post fertilization relative to 100 uM L-Dopa; format: functional; conditions: dose 25-100 µM
# [13] = molecular target: T1, Protein cereblon/Tyrosinase (Homo sapiens); assay: Protac activity at CRBN E3 ubiquitin ligase/tyrosinase in human A-375 cells assessed as induction of tyrosinase degradation at 100 uM measured up to 48 hrs by immunoblotting analysis; format: cell-based; conditions: time hrs <=48, TDE = time-dependent effect
# A-375 [14] = assay: Cytotoxicity against human A-375 cells assessed as reduction in cell viability at up to 400 uM measured after 72 hrs by CCK8 assay; format: cell-based; conditions: a-375, 72 h
# A-375 [15] = assay: Inhibition of melanin production in human A-375 cells assessed depigmentation ability at 0 to 100 uM measured after 24 hrs by UV-visible absorption spectrophotometric method relative to 100 uM L-Dopa; format: functional; conditions: dose 0-100 µM
# A-375 [16] = assay: Inhibition of melanin production in human A-375 cells assessed depigmentation ability at 0 to 100 uM measured after 24 hrs by UV-visible absorption spectrophotometric method relative to 100 uM kojic acid; format: functional; conditions: dose 0-100 µM
# [17] = molecular target: T1, Protein cereblon/Tyrosinase (Homo sapiens); assay: Protac activity at CRBN E3 ubiquitin ligase/tyrosinase in human A-375 cells assessed as induction of tyrosinase degradation by measuring maximum degradation at 100 uM measured after 24 hrs by immunoblotting analysis relative to control; format: cell-based
# A-375 [18] = assay: Inhibition of melanin production in human A-375 cells assessed reduction in melanin level measured after 24 hrs by UV-visible absorption spectrophotometric method; format: functional, cell-based
# [19] = molecular target: Adrenergic receptor alpha-1 (Homo sapiens) (UniProt P35348+P25100+P35368); assay: Induction of degradation in adrenergic receptor alpha1 in human A-375 cells at 100 uM measured after 24 hrs by immunoblotting analysis; format: cell-based
# [20] = molecular target: T1, Protein cereblon/Tyrosinase (Homo sapiens); assay: Protac activity at CRBN E3 ubiquitin ligase/tyrosinase in human A-375 cells assessed as induction of tyrosinase degradation measured after 24 hrs by immunoblotting analysis; format: cell-based
# Tyrosinase = molecular target: T2, Tyrosinase (Homo sapiens, UniProt P14679); assay: Inhibition of human tyrosinase
# T2 sequence (P14679 whole entry): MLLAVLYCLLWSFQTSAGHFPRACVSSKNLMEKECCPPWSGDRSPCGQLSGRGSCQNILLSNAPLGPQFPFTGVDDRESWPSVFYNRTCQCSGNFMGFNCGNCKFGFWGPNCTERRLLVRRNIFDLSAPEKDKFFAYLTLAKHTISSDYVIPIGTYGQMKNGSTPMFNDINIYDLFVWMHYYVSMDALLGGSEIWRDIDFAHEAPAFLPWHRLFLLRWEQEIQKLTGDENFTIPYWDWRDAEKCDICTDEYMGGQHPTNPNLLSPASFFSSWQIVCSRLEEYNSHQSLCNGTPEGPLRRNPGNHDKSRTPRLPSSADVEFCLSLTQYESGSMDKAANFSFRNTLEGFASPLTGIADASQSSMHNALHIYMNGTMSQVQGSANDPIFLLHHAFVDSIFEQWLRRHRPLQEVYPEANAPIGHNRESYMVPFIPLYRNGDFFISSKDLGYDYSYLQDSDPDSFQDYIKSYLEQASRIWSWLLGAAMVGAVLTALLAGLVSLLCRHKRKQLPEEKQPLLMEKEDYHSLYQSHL
# [21] = Cytotoxicity against human A-375 cells assessed as reduction in cell viability measured after 72 hrs by CCK8 assay; format: cell-based
# [22] = molecular target: T3, Tyrosinase (Homo sapiens) (UniProt P14679); assay: Induction of human tyrosinase degradation in human A-375 cells assessed as downregulation of tyrosinase at 100 uM pretreated with proteasome inhibitor, MG132 for 30 mins followed by compound addition and measured after 24 hrs by immunoblotting analysis; format: cell-based
# T3 sequence (whole entry): T2 sequence (P14679 whole entry)
# Danio rerio [23] = species: Danio rerio; assay: Inhibition of melanin production in zebra fish assessed reduction in melanin level in eyes at 25 to 100 uM measured 48 hrs post fertilization relative to 100 uM kojic acid; format: functional; conditions: dose 25-100 µM
# [24] = molecular target: D(1A) dopamine receptor (Homo sapiens) (UniProt P21728); assay: Induction of degradation in dopamine receptor D1 in human A-375 cells at 100 uM measured after 24 hrs by immunoblotting analysis; format: cell-based
# Sequence of D(1A) dopamine receptor (Homo sapiens) (P21728 whole entry): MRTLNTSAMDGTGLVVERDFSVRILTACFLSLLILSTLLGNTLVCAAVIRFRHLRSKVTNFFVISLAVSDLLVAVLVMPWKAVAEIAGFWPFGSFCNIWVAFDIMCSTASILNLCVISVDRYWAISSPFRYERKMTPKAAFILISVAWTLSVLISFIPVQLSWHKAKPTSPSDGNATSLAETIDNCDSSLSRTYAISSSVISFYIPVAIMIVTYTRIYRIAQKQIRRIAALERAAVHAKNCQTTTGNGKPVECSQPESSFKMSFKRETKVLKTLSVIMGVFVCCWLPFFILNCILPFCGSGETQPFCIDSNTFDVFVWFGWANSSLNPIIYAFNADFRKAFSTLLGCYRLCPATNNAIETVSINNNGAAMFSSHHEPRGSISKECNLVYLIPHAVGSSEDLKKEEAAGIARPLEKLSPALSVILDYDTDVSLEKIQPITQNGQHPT
# [25] = molecular target: T3, Tyrosinase (Homo sapiens); assay: Induction of human tyrosinase degradation in human A-375 cells assessed as downregulation of tyrosinase at 100 uM pretreated with ubiquitin activating enzyme inhibitor […] for 30 mins followed by compound addition and measured after 24 hrs by immunoblotting analysis; format: cell-based
# [26] = molecular target: Beta-1 adrenergic receptor (Homo sapiens) (UniProt P08588); assay: Induction of degradation in adrenergic receptor beta1 in human A-375 cells at 100 uM measured after 24 hrs by immunoblotting analysis; format: cell-based
# Sequence of Beta-1 adrenergic receptor (Homo sapiens) (P08588 whole entry, looked up): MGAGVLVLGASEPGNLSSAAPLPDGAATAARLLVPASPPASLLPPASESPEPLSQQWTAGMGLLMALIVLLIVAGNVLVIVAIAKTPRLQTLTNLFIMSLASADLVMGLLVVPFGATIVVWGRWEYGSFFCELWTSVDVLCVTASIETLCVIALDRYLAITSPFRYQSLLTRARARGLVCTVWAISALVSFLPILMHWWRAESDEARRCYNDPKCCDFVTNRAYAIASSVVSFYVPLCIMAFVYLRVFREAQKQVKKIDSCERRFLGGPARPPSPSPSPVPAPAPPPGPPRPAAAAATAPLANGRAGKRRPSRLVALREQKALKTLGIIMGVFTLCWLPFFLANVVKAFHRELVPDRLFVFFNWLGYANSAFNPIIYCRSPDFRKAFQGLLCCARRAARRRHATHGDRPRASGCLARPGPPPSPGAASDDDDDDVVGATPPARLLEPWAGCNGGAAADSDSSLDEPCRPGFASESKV
# HEK293 = assay: Cytotoxicity against HEK293 cells assessed as reduction in cell viability at up to 400 uM measured after 72 hrs by CCK8 assay; format: cell-based; conditions: human, hek293, 72 h
# [27] = Toxicity in zebrafish embryo assessed as effect on morphology at 25 to 100 uM measured 48 hrs post fertilization; format: tissue-based, Danio rerio; conditions: in vivo, dose 25-100 µM
# [28] = Cytotoxicity against HEK293 cells assessed as reduction in cell viability measured after 72 hrs by CCK8 assay; format: cell-based; conditions: human
# [29] = n-Octanol/water partition coefficient, logD of the compound; format: physicochemical
# Danio rerio [30] = species: Danio rerio; assay: Inhibition of melanin production in zebra fish assessed depigmentation effect at 100 uM measured 96 hrs post fertilization; format: functional, organism-based
compound,measurement,setting,value
N[C@@H](Cc1ccccc1)C(=O)NCCCCCNc1cccc2c1C(=O)N(C1CCC(=O)NC1=O)C2=O (some centres not stated),Activity,[1],inactive
N[C@@H](Cc1ccc(O)c(O)c1)C(=O)NCCCCCCCNc1cccc2c1C(=O)N(C1CCC(=O)NC1=O)C2=O (some centres not stated),Activity,[2],37%
N[C@@H](Cc1ccc(O)c(O)c1)C(=O)O [LEVODOPA],inhibition,Danio rerio [3],inactive
same,inhibition,Danio rerio [4],inactive
same,inhibition,Danio rerio [5],inactive
same,inhibition,A-375 [6],Active
same,Activity,[7],inactive
same,Kd,Mushroom tyrosinase,19 µM
same,inhibition,Danio rerio [8],inactive
O=C1CCC(N2C(=O)c3cccc(NCCCCCCCCCCC(=O)OCc4cc(=O)c(O)co4)c3C2=O)C(=O)N1 (configuration not stated),Activity,[7],inactive
N[C@@H](Cc1cccc(O)c1)C(=O)NCCCCCNc1cccc2c1C(=O)N(C1CCC(=O)NC1=O)C2=O (some centres not stated),Activity,[1],inactive
N[C@@H](Cc1ccc(O)c(O)c1)C(=O)NCCNc1cccc2c1C(=O)N(C1CCC(=O)NC1=O)C2=O (some centres not stated),Activity,[2],14%
N[C@@H](Cc1ccc(O)c(O)c1)C(=O)NCCCNc1cccc2c1C(=O)N(C1CCC(=O)NC1=O)C2=O (some centres not stated),Activity,[2],25%
CN1C(=O)CCC(N2C(=O)c3cccc(NCCCCCNC(=O)[C@@H](N)Cc4ccc(O)c(O)c4)c3C2=O)C1=O (some centres not stated),Activity,[1],inactive
N[C@@H](Cc1ccc(O)c(O)c1)C(=O)NCCOCCOCCNc1cccc2c1C(=O)N(C1CCC(=O)NC1=O)C2=O (some centres not stated),Activity,[2],7%
O=c1oc2c(O)c(O)cc3c(=O)oc4c(O)c(O)cc1c4c23 [ELLAGIC ACID],solubility,[9],9.7 µg/mL
N[C@@H](Cc1ccc(O)c(O)c1)C(=O)NCCCCCNc1cccc2c1C(=O)N(C1CCC(=O)NC1=O)C2=O (some centres not stated),Activity,[10],Non-Toxic
same,inhibition,Danio rerio [3],Active
same,inhibition,Danio rerio [4],Active
same,Activity,Danio rerio [11],81%
same,fold change (FC),Danio rerio [12],5.1
same,Activity,[13],Tde
same,inhibition,Danio rerio [5],Active
same,Activity,A-375 [14],Non-Toxic
same,fold change (FC),A-375 [15],1.7
same,Activity,[2],46%
same,fold change (FC),A-375 [16],1.4
same,%max,[17],61%
same,inhibition,A-375 [18],Dose-Dependent Effect
same,Activity,[19],inactive
same,Activity,[20],Dose-Dependent Effect
same,IC50,Tyrosinase,113 µM
same,solubility,[9],11400 µg/mL
same,CC50 at 72 h,[21],> 700 µM
same,Activity,[22],inactive
same,fold change (FC),Danio rerio [23],3.3
same,Activity,[7],Active
same,Activity,[24],inactive
same,Activity,[25],inactive
same,Activity,[26],inactive
same,inhibition,Danio rerio [8],Active
same,Activity,HEK293,Non-Toxic
same,Activity,[27],Non-Toxic
same,CC50 at 72 h,[28],> 700 µM
same,logP,[29],-0.65
N[C@@H](Cc1ccc(O)c(O)c1)C(=O)NCCCCCCCCCCNc1cccc2c1C(=O)N(C1CCC(=O)NC1=O)C2=O (some centres not stated),Activity,[2],37%
O=C1CCC(N2C(=O)c3cccc(NCCCCCCCC(=O)OCc4cc(=O)c(O)co4)c3C2=O)C(=O)N1 (configuration not stated),Activity,[7],inactive
O=C1CCC(N2C(=O)c3ccccc3C2=O)C(=O)N1 (configuration not stated),Activity,[7],inactive
N[C@@H](Cc1ccc(O)c(O)c1)C(=O)NCCOCCNc1cccc2c1C(=O)N(C1CCC(=O)NC1=O)C2=O (some centres not stated),Activity,[2],7%
N[C@@H](Cc1ccc(O)c(O)c1)C(=O)NCCCCCCNc1cccc2c1C(=O)N(C1CCC(=O)NC1=O)C2=O (some centres not stated),Activity,[2],> 25%
same,Activity,[19],inactive
same,Activity,[24],inactive
same,Activity,[26],inactive
N[C@@H](Cc1ccc(O)c(O)c1)C(=O)NCCCCNc1cccc2c1C(=O)N(C1CCC(=O)NC1=O)C2=O (some centres not stated),Activity,[2],19%
O=C1CCC(N2C(=O)c3cccc(NCCCCCC(=O)OCc4cc(=O)c(O)co4)c3C2=O)C(=O)N1 (configuration not stated),Activity,[7],inactive
O=C(CCc1ccc(O)c(O)c1)NCCCCCNc1cccc2c1C(=O)N(C1CCC(=O)NC1=O)C2=O (configuration not stated),Activity,[1],inactive
O=C1CCC(N2C(=O)c3cccc(NCCCCCCCCC(=O)OCc4cc(=O)c(O)co4)c3C2=O)C(=O)N1 (configuration not stated),Activity,[7],inactive
O=c1cc(CO)occ1O [KOJIC ACID],inhibition,Danio rerio [3],inactive
same,inhibition,Danio rerio [4],inactive
same,inhibition,Danio rerio [5],inactive
same,inhibition,A-375 [6],Active
same,solubility,[9],55 µg/mL
same,inhibition,Danio rerio [8],inactive
same,Activity,Danio rerio [30],Active
N[C@@H](Cc1ccc(O)cc1)C(=O)NCCCCCNc1cccc2c1C(=O)N(C1CCC(=O)NC1=O)C2=O (some centres not stated),Activity,[1],inactive
N[C@@H](Cc1ccc(O)c(O)c1)C(=O)NCCCCCCCCNc1cccc2c1C(=O)N(C1CCC(=O)NC1=O)C2=O (some centres not stated),Activity,[2],38%
same,Activity,[7],Active
